# In US20150328193A1, “TREATMENT OF MTOR HYPERACTIVE RELATED DISEASES AND DISORDERS” (THE BRIGHAM AND WOMEN'S HOSPITAL, INC., priority 2012, published 2015):
# Counter-ions that a name gives are not always drawn.
# Columns and labels:
# [1] = tested on: 621-101 cells (TSC2-null, derived from a LAM patient); assay: High-throughput screen of known bioactives in 621-101 cells, ATP levels ([…] GLO) as cell viability, with or without rapamycin pretreatment; format: cell-based, human; conditions: for Normalized ATP levels drug alone (A) / Normalized ATP levels rapa + drug (B): 621-101 cells, 48-72 h; for Normalized ATP levels drug alone (A): DMSO pretreatment; for Normalized ATP levels rapa + drug (B): rapamycin (20 nM) pretreatment two hours plus drug; for ATP Fold Change (B):(A): ratio of rapa + drug to drug alone; for Inducing cell death in TSC2-null LAM cells as single agent: used individually in the absence of rapamycin; for Synergy with rapamycin to bring about apoptosis in TSC2-null LAM cells: combination with rapamycin
# Method: Rapamycin was used at 20 nM and the screen compounds at 20 uM.
# Cells are then pretreated with either Rapamycin (20 nM) or DMSO control in duplicate for two hours. Compound libraries are then added at the ICCB and allowed to incubate for 48-72 h. […] Treatment with staurosporine (1-2 uM) represents a positive control for cell death.
# The inventors screened the Known Bioactives Collection at the ICCB which consists of approximately 7,000 compounds.
# FAK = FAK (Homo sapiens, UniProt Q05397); conditions: cited from earlier work
# FAK, sequence (Q05397 whole entry, species assumed): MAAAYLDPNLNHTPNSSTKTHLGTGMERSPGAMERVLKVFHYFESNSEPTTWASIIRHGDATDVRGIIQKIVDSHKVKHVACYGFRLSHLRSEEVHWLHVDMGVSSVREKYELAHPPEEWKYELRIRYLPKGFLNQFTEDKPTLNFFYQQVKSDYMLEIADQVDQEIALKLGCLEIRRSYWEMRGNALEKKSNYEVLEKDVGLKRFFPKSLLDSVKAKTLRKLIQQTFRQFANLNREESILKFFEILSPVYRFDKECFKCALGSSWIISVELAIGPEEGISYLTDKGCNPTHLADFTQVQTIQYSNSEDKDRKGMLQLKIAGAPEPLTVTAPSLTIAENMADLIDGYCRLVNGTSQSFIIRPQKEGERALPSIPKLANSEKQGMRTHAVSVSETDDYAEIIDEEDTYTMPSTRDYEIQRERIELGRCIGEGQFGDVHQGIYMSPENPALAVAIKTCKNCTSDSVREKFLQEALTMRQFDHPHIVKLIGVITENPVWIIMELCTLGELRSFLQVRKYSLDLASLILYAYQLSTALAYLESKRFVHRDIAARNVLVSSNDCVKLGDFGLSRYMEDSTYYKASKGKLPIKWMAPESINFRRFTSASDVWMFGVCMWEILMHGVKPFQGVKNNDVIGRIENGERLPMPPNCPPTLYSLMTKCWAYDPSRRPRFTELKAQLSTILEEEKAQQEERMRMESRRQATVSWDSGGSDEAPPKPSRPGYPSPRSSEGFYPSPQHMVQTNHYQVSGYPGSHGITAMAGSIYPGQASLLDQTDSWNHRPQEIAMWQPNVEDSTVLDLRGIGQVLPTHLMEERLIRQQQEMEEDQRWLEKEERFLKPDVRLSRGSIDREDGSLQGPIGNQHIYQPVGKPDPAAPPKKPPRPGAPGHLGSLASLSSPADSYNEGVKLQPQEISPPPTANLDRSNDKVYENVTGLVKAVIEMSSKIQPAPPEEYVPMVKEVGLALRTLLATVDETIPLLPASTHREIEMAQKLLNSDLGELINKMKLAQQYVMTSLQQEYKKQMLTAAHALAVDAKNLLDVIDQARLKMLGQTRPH
# JAK2 kinase = JAK2 kinase (Homo sapiens, UniProt O60674); conditions: in vitro; cited from earlier work
# JAK2 kinase, sequence (O60674 whole entry): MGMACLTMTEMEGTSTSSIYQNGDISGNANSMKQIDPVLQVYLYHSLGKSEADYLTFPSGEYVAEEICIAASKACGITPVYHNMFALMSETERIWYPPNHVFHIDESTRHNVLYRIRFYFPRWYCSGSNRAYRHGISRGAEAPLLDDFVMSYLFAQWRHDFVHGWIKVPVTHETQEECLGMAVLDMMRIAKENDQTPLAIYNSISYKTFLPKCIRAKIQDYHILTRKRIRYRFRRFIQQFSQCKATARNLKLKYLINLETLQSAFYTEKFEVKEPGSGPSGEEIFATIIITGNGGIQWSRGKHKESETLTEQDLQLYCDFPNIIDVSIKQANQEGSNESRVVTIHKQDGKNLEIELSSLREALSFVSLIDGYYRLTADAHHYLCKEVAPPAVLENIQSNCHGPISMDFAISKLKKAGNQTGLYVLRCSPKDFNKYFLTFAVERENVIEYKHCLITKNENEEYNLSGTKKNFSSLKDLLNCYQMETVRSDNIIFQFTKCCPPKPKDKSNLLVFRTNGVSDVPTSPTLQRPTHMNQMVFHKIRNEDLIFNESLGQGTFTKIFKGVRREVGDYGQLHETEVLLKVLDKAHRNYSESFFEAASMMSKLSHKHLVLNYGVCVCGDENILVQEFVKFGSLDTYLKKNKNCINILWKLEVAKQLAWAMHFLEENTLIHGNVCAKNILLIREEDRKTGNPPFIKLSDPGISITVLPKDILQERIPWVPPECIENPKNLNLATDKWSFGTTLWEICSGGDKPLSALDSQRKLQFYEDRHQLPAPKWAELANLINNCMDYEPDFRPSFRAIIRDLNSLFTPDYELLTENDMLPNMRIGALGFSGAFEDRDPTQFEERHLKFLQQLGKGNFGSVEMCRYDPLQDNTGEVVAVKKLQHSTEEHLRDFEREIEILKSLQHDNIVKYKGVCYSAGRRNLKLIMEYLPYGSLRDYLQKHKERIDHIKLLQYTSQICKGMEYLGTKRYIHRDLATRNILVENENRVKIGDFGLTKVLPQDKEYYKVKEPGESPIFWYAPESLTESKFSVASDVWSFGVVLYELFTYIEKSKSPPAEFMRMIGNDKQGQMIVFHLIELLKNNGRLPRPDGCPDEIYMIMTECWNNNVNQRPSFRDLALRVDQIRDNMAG
# TrkA = TrkA (Homo sapiens, UniProt P04629); conditions: cited from earlier work
# TrkA, sequence (P04629 33-796, species assumed): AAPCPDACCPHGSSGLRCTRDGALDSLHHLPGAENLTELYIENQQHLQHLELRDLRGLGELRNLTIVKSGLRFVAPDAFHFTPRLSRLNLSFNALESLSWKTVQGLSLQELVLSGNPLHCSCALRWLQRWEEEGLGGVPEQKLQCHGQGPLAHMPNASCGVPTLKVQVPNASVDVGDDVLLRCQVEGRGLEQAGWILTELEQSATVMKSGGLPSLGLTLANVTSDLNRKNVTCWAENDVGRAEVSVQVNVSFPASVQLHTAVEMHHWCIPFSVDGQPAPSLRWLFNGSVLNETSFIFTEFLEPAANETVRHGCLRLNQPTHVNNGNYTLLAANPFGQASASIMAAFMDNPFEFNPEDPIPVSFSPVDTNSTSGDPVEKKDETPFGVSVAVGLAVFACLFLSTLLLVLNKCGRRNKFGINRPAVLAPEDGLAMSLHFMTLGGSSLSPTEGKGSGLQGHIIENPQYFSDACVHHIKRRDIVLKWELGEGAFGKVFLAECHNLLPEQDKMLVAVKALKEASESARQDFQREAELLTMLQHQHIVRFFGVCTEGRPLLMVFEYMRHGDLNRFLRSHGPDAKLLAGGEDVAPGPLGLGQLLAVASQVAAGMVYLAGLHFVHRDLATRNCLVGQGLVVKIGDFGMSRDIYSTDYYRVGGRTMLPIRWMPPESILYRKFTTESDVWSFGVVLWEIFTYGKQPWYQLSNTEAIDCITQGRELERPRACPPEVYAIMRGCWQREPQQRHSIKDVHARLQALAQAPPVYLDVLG
# Aurora-A = molecular target: T1, Aurora-A (Homo sapiens, UniProt O14965); conditions: cited from earlier work
# T1 sequence (O14965 1-403): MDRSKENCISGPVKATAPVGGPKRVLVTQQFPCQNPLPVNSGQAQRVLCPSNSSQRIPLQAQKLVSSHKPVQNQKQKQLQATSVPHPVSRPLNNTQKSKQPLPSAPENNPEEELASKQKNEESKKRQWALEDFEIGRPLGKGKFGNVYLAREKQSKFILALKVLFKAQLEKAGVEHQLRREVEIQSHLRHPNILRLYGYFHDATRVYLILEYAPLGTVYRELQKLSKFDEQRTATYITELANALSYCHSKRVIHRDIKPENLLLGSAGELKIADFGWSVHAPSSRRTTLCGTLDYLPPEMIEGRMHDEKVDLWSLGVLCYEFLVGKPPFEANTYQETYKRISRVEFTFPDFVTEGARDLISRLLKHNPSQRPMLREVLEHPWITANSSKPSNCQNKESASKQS
# 621-101 cells = assay: Follow-up imaging of cell death/proliferation in 621-101 cells; format: cell-based, human
# Method: 621-101 cells were pretreated for two hours with either DMSO (top two panels) or rapamycin (20 nM) bottom two panels) followed by the addition of fresh DMSO (top left), fresh rapamycin (bottom left), chelerythrine chloride (1 uM, top right), or rapamycin and chelerythrine chloride (bottom right). […] 4× magnification.
# [2] = tested on: ELT3-V3 (TSC2-deficient) cells; assay: Paroxetine treatment of ELT3-V3 (TSC2-deficient) versus ELT3-T3 (re-expressing TSC2) cells; format: cell-based, Eker rat; design: dose or concentration left out as unconfirmed; conditions: 24 hrs
# Method: […] TSC2-deficient uterine leiomyoma cells derived from the Eker rat model of TSC, ELT3-V3 (TSC2-deficient) and ELT3-T3 (re-expressing TSC2) were treated with […] of DMSO or Paxil for 24 hrs.
# [3] = tested on: Tsc2-null mouse embryonic fibroblasts (MEFs); assay: Chelerythrine chloride treatment of Tsc2-null mouse embryonic fibroblasts; format: cell-based; conditions: 10 uM, 30 hours
# [4] = tested on: wild-type mouse embryonic fibroblasts (MEFs); assay: Chelerythrine chloride treatment of wild-type mouse embryonic fibroblasts; format: cell-based; conditions: 10 uM, 30 hours
# protein kinase C (PKC) = conditions: cited from earlier work
# [5] = Rapamycin 20 nM, screen compounds 20 uM
compound,measurement,setting,value
CCC1(c2ccc(N)cc2)CCC(=O)NC1=O (centres unmarked) [Aminoglutethimide],Normalized ATP levels drug alone (A),[1],0.474
same,Normalized ATP levels rapa + drug (B),[1],1.264
same,ATP Fold Change (B):(A),[1],2.7 (Anticonvulsant)
same,Inducing cell death in TSC2-null LAM cells as single agent,[1],surprisingly effective at inducing cell death
"CN1CCN(CCCN2c3ccccc3Sc3ccc(C(F)(F)F)cc32)CC1 [trifluoperazine, 10-[3-(4-methylpiperazin-l-yl)propyl]-2-(trifluoromethyl)-10H-phenothiazine]",Inducing cell death in TSC2-null LAM cells as single agent,[1],surprisingly effective at inducing cell death
Cc1cc(Nc2nc(N[C@@H](C)c3ccc(F)cc3)c(C#N)cc2F)n[nH]1 [AZ-960],IC50,FAK,~100 nM
same,Ki,JAK2 kinase,0.45 nM
same,Synergize with rapamycin to cause cell death / decrease ATP levels (confirmed hits),[1]; [5],confirmed as hits
same,Synergy with rapamycin to bring about apoptosis in TSC2-null LAM cells,[1],worked synergistically with rapamycin
same,IC50,TrkA,~100 nM
same,IC50,Aurora-A,~100 nM
CO[C@H]1C[C@@H]2CC[C@@H](C)[C@@](O)(O2)C(=O)C(=O)N2CCCC[C@H]2C(=O)O[C@H]([C@H](C)C[C@@H]2CC[C@@H](O)[C@H](OC)C2)CC(=O)[C@H](C)/C=C(\C)[C@@H](O)[C@@H](OC)C(=O)[C@H](C)C[C@H](C)/C=C/C=C/C=C/1C [rapamycin],Cell death in 621-101 cells,621-101 cells; FIG. 1,does not induce cell death
COC(=O)C1=C(C)NC(C)=C(C(=O)OCCN(C)Cc2ccccc2)C1c1cccc([N+](=O)[O-])c1 (centres unmarked) [nicardipine],Synergy with rapamycin to bring about apoptosis in TSC2-null LAM cells,[1],worked synergistically with rapamycin
"O=C(Nc1cccc(Nc2ncc(Br)c(NCCc3cnc[nH]3)n2)c1)N1CCCC1 [BX912, N-(3-(4-(2-(1H-imidazol-5-yl)ethylamino)-5-bromopyrimidin-2-ylamino)phenyl)pyrrolidine-1-carboxamide]",Synergy with rapamycin to bring about apoptosis in TSC2-null LAM cells,[1],worked synergistically with rapamycin
"C/N=c1\nc(-c2ccccc2)n(-c2ccccc2)s1 [SCH-202676 hydrobromide, (N-(2,3-diphenyl-1,2,4-thiadiazol-5-(2H)-ylidene)methanamine) hydrobromide]",Synergize with rapamycin to cause cell death / decrease ATP levels (confirmed hits),[1]; [5],confirmed as hits
same,Synergy with rapamycin to bring about apoptosis in TSC2-null LAM cells,[1],worked synergistically with rapamycin
CN(C)CCOc1ccc(-c2nc(-c3ccncc3)c(-c3ccc4c(c3)CC/C4=N\O)[nH]2)cc1 [SB-590885],Synergize with rapamycin to cause cell death / decrease ATP levels (confirmed hits),[1]; [5],confirmed as hits
same,Synergy with rapamycin to bring about apoptosis in TSC2-null LAM cells,[1],worked synergistically with rapamycin
CO[C@@H](C(=O)N1Cc2[nH]nc(NC(=O)c3ccc(N4CCN(C)CC4)cc3)c2C1)c1ccccc1 [danusertib (PHA-739358)],Synergize with rapamycin to cause cell death / decrease ATP levels (confirmed hits),[1]; [5],confirmed as hits
same,Synergy with rapamycin to bring about apoptosis in TSC2-null LAM cells,[1],worked synergistically with rapamycin
CC(C)NCC(O)COc1ccc(CCOCC2CC2)cc1 (centres unmarked) [Betaxolol HCl],Normalized ATP levels drug alone (A),[1],0.487
same,Normalized ATP levels rapa + drug (B),[1],1.27
same,ATP Fold Change (B):(A),[1],2.6 (β blocker)
same,Inducing cell death in TSC2-null LAM cells as single agent,[1],surprisingly effective at inducing cell death
CCC1(c2ccccc2)NC(=O)N(C)C1=O (centres unmarked) [Mephenytoin],Normalized ATP levels drug alone (A),[1],0.425
same,Normalized ATP levels rapa + drug (B),[1],1.17
same,ATP Fold Change (B):(A),[1],2.8 (Anticonvulsant)
same,Inducing cell death in TSC2-null LAM cells as single agent,[1],surprisingly effective at inducing cell death
OCc1cc(C(O)CNCCCCCCOCCCCc2ccccc2)ccc1O (centres unmarked) [Salmeterol],Normalized ATP levels drug alone (A),[1],0.184
same,Normalized ATP levels rapa + drug (B),[1],0.456
same,ATP Fold Change (B):(A),[1],2.5 (β blocker)
same,Inducing cell death in TSC2-null LAM cells as single agent,[1],surprisingly effective at inducing cell death
"COc1ccc2c(c1)CC[C@@H]1[C@@H]2CC[C@]2(C)[C@@H](NCCCCCCN3C(=O)CCC3=O)CC[C@@H]12 [U-73343, 1-[6-[((17β)-3-Methoxyestra-1,3,5[10]-trien-17-yl)amino]hexyl]-2,5-pyrrolidinedione]",Synergy with rapamycin to bring about apoptosis in TSC2-null LAM cells,[1],worked synergistically with rapamycin
OCCN1CCN(CC/C=C2/c3ccccc3Sc3ccc(C(F)(F)F)cc32)CC1 [Flupenthixol 2HCl],Normalized ATP levels drug alone (A),[1],0.273
same,Normalized ATP levels rapa + drug (B),[1],0.776
same,ATP Fold Change (B):(A),[1],2.8 (Anti-psychotic)
same,Inducing cell death in TSC2-null LAM cells as single agent,[1],surprisingly effective at inducing cell death
"(7R)-7-(Acetyloxy)-4-hydroxy-N,N,N-trimethyl-3,5,9-trioxa-4-phosphapentacosan-1-aminium-4-oxide [PAF C16]",Synergy with rapamycin to bring about apoptosis in TSC2-null LAM cells,[1],worked synergistically with rapamycin
NC[C@@H]1O[C@H](C23CC4CC(CC(C4)C2)C3)Cc2c1ccc(O)c2O [A-77636],Inducing cell death in TSC2-null LAM cells as single agent,[1],surprisingly effective at inducing cell death
OCCN1CCN(CCCN2c3ccccc3Sc3ccc(C(F)(F)F)cc32)CC1 [Fluphenazine 2HCl],Normalized ATP levels drug alone (A),[1],0.069
same,Normalized ATP levels rapa + drug (B),[1],0.191
same,ATP Fold Change (B):(A),[1],2.8 (Anti-psychotic)
same,Inducing cell death in TSC2-null LAM cells as single agent,[1],surprisingly effective at inducing cell death
"C[CH2][Hg][S]c1ccccc1C(=O)[O-].[Na+] [Thimerosal, Ethyl(2-mercaptobenzoato-(2-)-O,S) mercurate(1-) sodium]",Synergy with rapamycin to bring about apoptosis in TSC2-null LAM cells,[1],worked synergistically with rapamycin
"Fc1ccc([C@@H]2CCNC[C@H]2COc2ccc3c(c2)OCO3)cc1 [paroxetine, (3S,4R)-3-[(2H-1,3-benzodioxol-5-yloxy)methyl]-4-(4-fluorophenyl)piperidine]",Apoptosis of ELT3-V3 (TSC2-deficient) cells,[2],susceptible to Paxil induced apoptosis
same,Selectivity for TSC2-deficient ELT3-V3 versus ELT3-T3 cells,[2],selective to Tsc2-null cells
same,Inducing cell death in TSC2-null LAM cells as single agent,[1],surprisingly effective at inducing cell death
"CNCCC=C1c2ccccc2CCc2ccccc21 [nortriptyline, 3-(10,11-dihydro-5H-dibenzo[a,d]cyclohepten-5-ylidene)-N-methyl-1-propanamine]",Inducing cell death in TSC2-null LAM cells as single agent,[1],surprisingly effective at inducing cell death
"CNCCC(Oc1ccc(C(F)(F)F)cc1)c1ccccc1 (racemic) [fluoxetine, (RS)-N-methyl-3-phenyl-3-[4-(trifluoromethyl)phenoxy]propan-1-amine]",Inducing cell death in TSC2-null LAM cells as single agent,[1],surprisingly effective at inducing cell death
C[C@H](CCC(=O)O)C[C@H](C)C[C@H](C)C(=O)/C=C(\O)[C@H](C)C[C@H](C)C/C=C/[C@@H](C)[C@@H](O)[C@@H](C)[C@@H](O)C[C@@H]1CC[C@@](C)([C@H]2CC[C@@](C)([C@@H](C)O)O2)O1 [ionomycin],Synergy with rapamycin to bring about apoptosis in TSC2-null LAM cells,[1],worked synergistically with rapamycin
COc1ccc2c(c[n+](C)c3c4cc5c(cc4ccc23)OCO5)c1OC [chelerythrine chloride],Effect on 621-101 cells in combination with rapamycin,"621-101 cells; 24 h, 1 uM, rapamycin 20 nM pretreatment two hours",effect on cells is reduced
same,621-101 cell proliferation,"621-101 cells; 24 h post drug exposure, 1 uM, DMSO pretreatment",inhibits 621-101 cell proliferation
same,621-101 cell proliferation,621-101 cells; 96 h post drug exposure,inhibits 621-101 cell proliferation
same,Effect on Tsc2-null MEFs,[3],dramatic effect
same,Selectivity for Tsc2-null versus wild-type MEFs,[3],selective to Tsc2-null cells
same,Effect on wild-type MEFs,[4],minimal effect
same,IC50,protein kinase C (PKC),660 nM
same,Effect alone versus in combination with rapamycin (single agent potential),[1]; [5],protected by rapamycin
same,Inducing cell death in TSC2-null LAM cells as single agent,[1],surprisingly effective at inducing cell death
